pIC50: −log10 of the molar value.
Each compound was assayed against T1, recombinant human MMP13 catalytic domain (CD) (Homo sapiens, UniProt P45452) (assay: MMP-13 catalytic domain FRET enzyme assay). Conditions: recombinant human MMP-13 catalytic domain.
T1 construct: catalytic domain (CD) construct encompassing residues 20-274 (SWISS-PROT P45452); made in house
Type: biochemical
Method: A recombinant human MMP13 catalytic domain (CD) construct encompassing residues 20-274 (SWISS-PROT P45452) was generated by synthetic gene methods and bacterial expression. MMP-13 activity assays were performed using the recombinant human MMP-13 CD at a 0.4 nM concentration and the fluorogenic substrate (QXL-520)-K-P-L-A˜Nva-Dap(5-FAM)-A-R-NH2 (Anaspec cat #60554-01, San Jose, Calif.) at a 0.25 μM concentration in assay buffer containing […], pH 7.5, 10 mM CaCl2, 150 mM NaCl, 0.05% Brij 35. The assay is based on the cleavage of this substrate by MMP-13, resulting in decrease of FRET between the donor-acceptor pair and subsequent fluorescence enhancement. The assays were carried out in 384-well plates (Greiner cat #781076, Germany) for 60 min at RT. After the incubation period, the reaction was quenched by the addition of 5 μL of 500 mM EDTA (100 mM final concentration) (Rankem, Cat #E0120, India) mixed well and the rate of substrate hydrolysis was determined by monitoring change in fluorescence at excitation and emission wavelengths of 485 nm and 535 nm respectively. Fluorescence was measured on a Victor V5 plate reader (Perkin Elmer, Turku, Finland). The test compounds used for assessing the potency of inhibition of MMP-13 activity were dissolved in DMSO (final DMSO concentration in the assay was 5%). Selected compounds were also screened against full length MMP13 (R&D Systems (Cat. No. 511-MM-010), Minneapolis, Minn.) at 2 nM concentration using the same fluorogenic substrate mentioned above. The enzyme was activated using 1 m Mp-aminophenylmercuric acetate—APMA (Cat #A-9563, Sigma, Germany).
Data analysis: The percent inhibition of the enzyme activity in presence of test compounds were calculated using the equation, percent (%) Inhibition=100−[(Fi/Fc)*100] where Fc is the fluorescence corresponding to initial enzyme activity and Fi is the fluorescence corresponding to the enzyme activity in presence of inhibitor. The IC50 values were calculated by fitting the dose-response data to a sigmoidal curve fitting equation using Graph Pad prism software (Version 5, La Jolla, Calif.).
MMP13 Catalytic Domain (CD) Potency of the Described Examples Determined Using Time Resolved Fluorescence Resonance Energy Transfer (FRET) Enzyme Assays: […]

| pIC50 | Structure (SMILES) |
| --- | --- |
| 7.00 to 8.00 | COc1cc(CNC(=O)c2cc(C3=NO[C@H]([C@H]4CO[C@H](C(C)(C)O)CO4)C3)nc(C)n2)ccc1F |
| > 8.00 | COc1cccc(CNC(=O)c2cc(C3=NOC(c4ccc(C(=O)O)cc4)C3)ccn2)c1 (centres unmarked) |
| > 8.00 | COc1cc(CNC(=O)c2cc(C3=NOC(c4cccnc4)C3)nc(C)n2)ccc1F (centres unmarked) |
| > 8.00 | COc1cc(CNC(=O)c2cc(C3=NO[C@H]([C@H]4CO[C@H](CNC(C)=O)CO4)C3)nc(C)n2)ccc1F |
| > 8.00 | CNC(=O)N1CCC(C2CC(c3cc(C(=O)NCc4ccc(F)c(OC)c4)nc(C)n3)=NO2)CC1 (centres unmarked) |
| > 8.00 | Cc1nc(C(=O)NCc2ccc3c(c2)NC(=O)CO3)cc(C2=NOC(c3ccc(=O)n(C)c3)C2)n1 (centres unmarked) |
| > 8.00 | COc1cc(CNC(=O)c2cc(C3=NOC([C@H]4CC[C@H](NC(=O)[C@H](C)O)CC4)C3)nc(C)n2)ccc1F (some centres unmarked) |
| 7.00 to 8.00 | COc1ccc(CNC(=O)c2cc(C3=NOC(c4cccc(OCCO)c4)C3)nc(C)n2)cc1 (centres unmarked) |
| 7.00 to 8.00 | CNC(=O)c1ccc(C2CC(c3cc(C(=O)NCc4ccc(F)c(OC)c4)nc(C)n3)=NO2)nc1 (centres unmarked) |
| > 8.00 | COc1cc(CNC(=O)c2cc(C3=NO[C@H](c4ccc(=O)n(C)c4)C3)nc(C)n2)ccc1F |
| > 8.00 | COc1cc(CNC(=O)c2cc(C3=NOC([C@H]4CC[C@H](NS(N)(=O)=O)CC4)C3)nc(C)n2)ccc1F (some centres unmarked) |
| > 8.00 | COc1cc(CNC(=O)c2cc(C3=NO[C@@H](c4ccc(CO)cc4)C3)nc(C)n2)ccc1F |
| > 8.00 | COc1cc(CNC(=O)c2cc(C3=NOC([C@H]4CC[C@H](C(N)=O)CC4)C3)nc(C)n2)ccc1F (some centres unmarked) |
| 7.00 to 8.00 | COc1cc(CNC(=O)c2cc(C3=NOC(C4CCN(C(=O)CS(C)(=O)=O)CC4)C3)nc(C)n2)ccc1F (centres unmarked) |
| < 6.00 | Cc1nc(C(=O)NCc2ccc(Cl)c(Cl)c2)cc(C2=NO[C@H]([C@H]3CO[C@H](CO)CO3)C2)n1 |
| > 8.00 | Cc1nc(C(=O)NCc2ccc(F)c(C)c2)cc(C2=NOC(C3CCN(S(C)(=O)=O)CC3)C2)n1 (centres unmarked) |
| > 8.00 | COc1cc(CNC(=O)c2cc(C3=NOC(C4CCCCC4)C3)nc(C)n2)ccc1F (centres unmarked) |
| 7.00 to 8.00 | Cc1nc(C(=O)NCc2ccc(F)cc2)cc(C2=NO[C@H]([C@H]3CO[C@H](CO)CO3)C2)n1 |
| > 8.00 | Cc1nc(C(=O)NCc2ccc(F)c(Cl)c2)cc(C2=NO[C@H]([C@H]3CO[C@H](CO)CO3)C2)n1 [drawing 901] |

| pIC50 | Structure (SMILES) |
| --- | --- |
| > 8.00 | CNC(=O)c1ccc(C2CC(c3cc(C(=O)NCc4ccc(F)c(OC)c4)nc(C)n3)=NO2)cc1 (centres unmarked) |
| 7.00 to 8.00 | COc1cc(CNC(=O)c2cc(C3=NOC(C4CCN(C(=O)CO)CC4)C3)nc(C)n2)ccc1F (centres unmarked) |
| < 6.00 | COc1cc(CNC(=O)c2cc(C3=NO[C@H](c4ccc(CO)cc4)C3)nc(C)n2)ccc1F |
| 7.00 to 8.00 | CC(=O)N[C@H]1CC[C@H](C2CC(c3cc(C(=O)NCc4ccc(F)c(F)c4)nc(C)n3)=NO2)CC1 (some centres unmarked) |
| 7.00 to 8.00 | COc1cccc(CNC(=O)c2cc(C3=NO[C@H]([C@@H]4CO[C@@H](CO)CO4)C3)nc(C)n2)c1 |
| > 8.00 | COc1cc(CNC(=O)c2cc(C3=NOC(c4ccc(C#N)cn4)C3)nc(C)n2)ccc1F (centres unmarked) |
| > 8.00 | COc1cc(CNC(=O)c2cc(C3=NO[C@H]([C@H]4CC[C@H](NC(=O)[C@H](C)O)CC4)C3)nc(C)n2)ccc1F |
| 7.00 to 8.00 | CCNC(=O)N1CCC(C2CC(c3cc(C(=O)NCc4ccc(F)c(OC)c4)nc(C)n3)=NO2)CC1 (centres unmarked) [drawing 877] |
| 7.00 to 8.00 | Cc1nc(C(=O)NCc2ccc3c(c2)NC(=O)CC3)cc(C2=NO[C@H]([C@H]3CO[C@H](CO)CO3)C2)n1 |
| > 8.00 | COc1cc(CNC(=O)c2cc(C3=NOC([C@H]4CC[C@H](NC(=O)CC#N)CC4)C3)nc(C)n2)ccc1F (some centres unmarked) |
| > 8.00 | COc1cc(CNC(=O)c2cc(C3=NOC(c4ccc(-c5cnco5)nc4)C3)nc(C)n2)ccc1F (centres unmarked) |
| > 8.00 | COc1cc(CNC(=O)c2cc(C3=NOC(c4ccc(-c5nc(C)no5)cn4)C3)nc(C)n2)ccc1F (centres unmarked) |
| 7.00 to 8.00 | Cc1nc(C(=O)NCc2ccc(F)cc2)cc(C2=NOC(C3CCN(C(=O)CO)CC3)C2)n1 (centres unmarked) |
| 7.00 to 8.00 | Cc1nc(C(=O)NCc2ccncc2)cc(C2=NO[C@H]([C@H]3CO[C@H](CO)CO3)C2)n1 |
| < 6.00 | Cc1nc(C(=O)NCc2ccc3oc(C)nc3c2)cc(C2=NO[C@@H]([C@H]3CO[C@H](CO)CO3)C2)n1 |
| > 8.00 | COc1cc(CNC(=O)c2cc(C3=NOC(c4ccc(=O)n(CC(=O)N(C)OC)c4)C3)nc(C)n2)ccc1F (centres unmarked) |
| 7.00 to 8.00 | Cc1nc(C(=O)NCc2ccc(F)cc2)cc(C2=NOC(c3ccc(C#N)nn3)C2)n1 (centres unmarked) |
| > 8.00 | CCS(=O)(=O)N1CCC(C2CC(c3cc(C(=O)NCc4ccc(F)c(OC)c4)nc(C)n3)=NO2)CC1 (centres unmarked) |

Continued, compound first:

| Structure (SMILES) | pIC50 |
| --- | --- |
| COc1cc(CNC(=O)c2cc(C3=NOC(C4CCN(C(=O)N(C)CCO)CC4)C3)nc(C)n2)ccc1F (centres unmarked) | > 8.00 |
| COc1cc(CNC(=O)c2cc(C3=NOC(C4CCOCC4)C3)nc(C)n2)ccc1F (centres unmarked) | > 8.00 |
| COc1cc(CNC(=O)c2cc(C3=NOC(CC4CCN(S(C)(=O)=O)CC4)C3)nc(C)n2)ccc1F (centres unmarked) | 7.00 to 8.00 |
| COc1cc(CNC(=O)c2cc(C3=NOC(c4ccc(CN5CCS(=O)(=O)CC5)cc4)C3)nc(C)n2)ccc1F (centres unmarked) | > 8.00 |
| COc1ccc(CNC(=O)c2cc(C3CC(c4ccc(OCCO)cc4)=NO3)nc(C)n2)cc1 (centres unmarked) | 7.00 to 8.00 |
| COc1ccc(CNC(=O)c2cc(C3=NOC(C4CCCCC4)C3)nc(C)n2)cc1 (centres unmarked) | 7.00 to 8.00 |
| COc1cc(CNC(=O)c2cc(C3=NOC(c4ccc(C#N)nc4)C3)nc(C)n2)ccc1F (centres unmarked) | > 8.00 |
| COc1cc(CNC(=O)c2cc(C3=NO[C@H]([C@H]4CC[C@H](NC(C)=O)CC4)C3)nc(C)n2)ccc1F [drawing 1032] | 7.00 to 8.00 |
| COc1cc(CNC(=O)c2cc(C3=NOC(c4ccnc(C(C)(C)O)c4)C3)nc(C)n2)ccc1F (centres unmarked) | 7.00 to 8.00 |
| COc1cccc(CNC(=O)c2cc(C3=NOC(c4ccccn4)C3)nc(C)n2)c1 (centres unmarked) | 7.00 to 8.00 |
| COc1cc(CNC(=O)c2cc(C3=NO[C@H]([C@H]4CO[C@H](CNS(C)(=O)=O)CO4)C3)nc(C)n2)ccc1F | > 8.00 |
| COc1cc(CNC(=O)c2cc(C3=NO[C@@H]([C@H]4CO[C@H](CO)CO4)C3)nc(C)n2)ccc1F [drawing 837] | 6.00 to 7.00 |
| COc1cc(CNC(=O)c2cc(C3=NOC(C4CCN(C(=O)NC(C)C)CC4)C3)nc(C)n2)ccc1F (centres unmarked) | 7.00 to 8.00 |
| COc1cc(CNC(=O)c2cc(C3=NOC(C4CCN(C(=O)C5CC5)CC4)C3)nc(C)n2)ccc1F (centres unmarked) [drawing 875] | 7.00 to 8.00 |
| COc1cc(CNC(=O)c2cc(C3=NOC([C@H]4CC[C@H](NC(=O)CO)CC4)C3)nc(C)n2)ccc1F (some centres unmarked) | > 8.00 |
| COc1cc(CNC(=O)c2cc(C3=NOC(c4cn[nH]c4)C3)nc(C)n2)ccc1F (centres unmarked) | 7.00 to 8.00 |

| Structure (SMILES) | pIC50 |
| --- | --- |
| Cc1nc(C(=O)NCc2ccc(F)c(F)c2)cc(C2=NOC(c3ccc(C#N)nn3)C2)n1 (centres unmarked) | 7.00 to 8.00 |
| COc1cc(CNC(=O)c2cc(C3=NOC(c4ccc(CO)nc4)C3)nc(C)n2)ccc1F (centres unmarked) | 7.00 to 8.00 |
| COc1cc(CNC(=O)c2cc(C3=NOC(c4ccc(=O)n(C5CC5)n4)C3)nc(C)n2)ccc1F (centres unmarked) | 7.00 to 8.00 |
| COc1ccc(CNC(=O)c2cc(C3=NOC(c4ccc(CN(C)C)cc4)C3)ccn2)cc1 (centres unmarked) | < 6.00 |
| CNC(=O)Cn1cc([C@H]2CC(c3cc(C(=O)NCc4ccc(F)c(OC)c4)nc(C)n3)=NO2)ccc1=O | 7.00 to 8.00 |
| COc1cc(CNC(=O)c2cc(C3=NOC(c4ccc(=O)n(CC(=O)N(C)C)n4)C3)nc(C)n2)ccc1F (centres unmarked) | 7.00 to 8.00 |
| Cc1nc(C(=O)NCc2ccc(F)cc2)cc(C2=NOC(c3ccc(=O)n(C)c3)C2)n1 (centres unmarked) | 7.00 to 8.00 |
| COc1cc(CNC(=O)c2cc(C3=NOC(c4cc(-c5nc(C)no5)nn4C)C3)nc(C)n2)ccc1F (centres unmarked) | 7.00 to 8.00 |
| Cc1nc(C(=O)NCc2ccc(F)c(C)c2)cc(C2=NOC(c3ccc(=O)n(C)c3)C2)n1 (centres unmarked) [drawing 1015] | > 8.00 |
| COc1ccc(CNC(=O)c2cc(C3=NO[C@H](c4ccc(OCCO)cc4)C3)nc(C)n2)cc1 | > 8.00 |
| COc1cc(CNC(=O)c2cc(C3=NOC(c4cnn(CCO)c4)C3)nc(C)n2)ccc1F (centres unmarked) | < 6.00 |
| COc1cc(CNC(=O)c2cc(C3=NOC(C4CCN(C(=O)CNC(C)=O)CC4)C3)nc(C)n2)ccc1F (centres unmarked) [drawing 1064] | 7.00 to 8.00 |
| Cc1nc(C(=O)NCc2ccnc3ccccc23)cc(C2=NO[C@@H]([C@H]3CO[C@H](CO)CO3)C2)n1 | 6.00 to 7.00 |
| Cc1nc(C(=O)NCc2ccc3c(c2)OCCO3)cc(C2=NO[C@@H]([C@H]3CO[C@H](CO)CO3)C2)n1 | < 6.00 |
| CNC(=O)Cn1nc(C2CC(c3cc(C(=O)NCc4ccc(F)c(OC)c4)nc(C)n3)=NO2)ccc1=O (centres unmarked) | 7.00 to 8.00 |

From patent US9029409B2, “Isoxazolines as therapeutic agents” (AbbVie Inc., priority 2011, dated 2015)
